For series [1], the system named is Plasmodium berghei. The experiment in a line: Antimalarial effect against trophozoite-induced Plasmodium berghei in mice (Mus musculus) after 20 mg/kg subcutaneous dose. It counts as functional.
Series [2] relates to Plasmodium berghei. As to the kind of experiment: Antimalarial effect against trophozoite-induced Plasmodium berghei in mice (Mus musculus) at 320 mg/kg subcutaneous dose. Format: functional.
Series [3] relates to Plasmodium berghei. As to the kind of experiment: Antimalarial effect against trophozoite-induced Plasmodium berghei in mice (Mus musculus) after 40 mg/kg subcutaneous dose. Format: functional.
Series [4] concerns Plasmodium berghei. As to the kind of experiment: (§1) Antimalarial effect against trophozoite-induced Plasmodium berghei in mice (Mus musculus) at 640 mg/kg subcutaneous dose. Format: functional.
The subject of series [5] is Plasmodium berghei. The experiment in a line: Antimalarial effect against trophozoite-induced Plasmodium berghei in mice (Mus musculus) at 160 mg/kg subcutaneous dose. Format: functional.
Series [6] relates to Mus musculus. As to the kind of experiment: Number of mice cured at a subcutaneous dose of 640 mg/kg. It counts as functional. Conditions: 640 mg/kg.
Series [7] has as its system Plasmodium berghei. As to the kind of experiment: Antimalarial activity against trophozoite-induced Plasmodium berghei in mice (Mus musculus). It counts as functional.
In series [8] the test system is Plasmodium berghei. As to the kind of experiment: Antimalarial effect against trophozoite-induced Plasmodium berghei in mice (Mus musculus) at 80 mg/kg subcutaneous dose. It counts as functional.
A short description of series [9]: The ratio of SD90 of the quinine hydrochloride, to the SD90 of the test substance for the Dose of 2.2 mg/kg. Format: functional.
The subject of series [10] is Mus musculus. As to the kind of experiment: Number of mice cured at a dose of 640 mg/kg sc. Conditions: route subcutaneous, 640 mg/kg. It counts as functional.
In series [11] the test system is Mus musculus. The experiment in a line: Antimalarial effect against trophozoite-induced Plasmodium berghei in mice (Mus musculus) at dosage of 20 mg/kg after subcutaneous administration. It counts as functional.
The test system of series [12] is Mus musculus. The experiment in a line: Number of mice cured at a subcutaneous dose of 320 mg/kg. It counts as functional.
Series [13] can be described thus: The ratio of SD90 of the quinine hydrochloride, to the SD90 of the test substance for the Dose of 22 mg/kg. It counts as functional.
For series [14], the system named is Mus musculus. As to the kind of experiment: No of toxic deaths at dose of 640 mg/kg. It counts as ADME, organism-based. Also on record: dose 640 mg/kg. Conditions: in vivo.
Series [15] concerns Mus musculus. The experiment in a line: Number of toxic deaths at a dose of 640 mg/kg. Conditions: in vivo. Also noted: dose 640 mg/kg. It counts as toxicity, organism-based.
The subject of series [16] is Plasmodium berghei. The series is described as §1. Format: functional. This is another data set of the same source.
Series [17] in a line: The ratio of SD90 of the quinine hydrochloride, to the SD90 of the test substance for the Dose of 97 mg/kg/day. It counts as functional.
Series [18] in a line: The ratio of SD90 of the quinine hydrochloride, to the SD90 of the test substance for the Dose of 46 mg/kg. It counts as functional.
Series [19] concerns Mus musculus. As to the kind of experiment: Antimalarial effect against trophozoite-induced Plasmodium berghei in mice (Mus musculus) at dosage of 320 mg/kg after subcutaneous administration;. It counts as functional.
Series [20] has as its system Plasmodium berghei. The experiment in a line: Antimalarial activity against trophozoite-induced Plasmodium berghei in mice (Mus musculus) at 160 mg/kg subcutaneous dose. Format: functional.
For series [21], the system named is Mus musculus. As to the kind of experiment: Number of mice cured at a dose 160 mg/kg sc. Format: functional. Conditions: route subcutaneous.
A short description of series [22]: The ratio of SD90 of the quinine hydrochloride, to the SD90 of the test substance for the Dose of 74.5 mg/kg. It counts as functional.
Series [23] concerns Mus musculus. The experiment in a line: Antimalarial effect against trophozoite-induced Plasmodium berghei in mice (Mus musculus) at dosage of 640 mg/kg after subcutaneous administration; No. of mice (Mus musculus) surviving after 60 days 4. Format: functional.
For series [24], the system named is Mus musculus. The experiment in a line: Number of mice cured at a subcutaneous dose of 160 mg/kg. It counts as functional.
Series [25] relates to Mus musculus. The experiment in a line: Antimalarial effect against trophozoite induced Plasmodium berghei in mice (Mus musculus) at dosage of 160 mg/kg after subcutaneous administration; No. of mice (Mus musculus) surviving after 60 days 1. Format: functional.
Series [26] has as its system Mus musculus. The experiment in a line: Antimalarial effect against trophozoite-induced Plasmodium berghei in mice (Mus musculus) at dosage of 320 mg/kg after subcutaneous administration; No. of mice (Mus musculus) surviving after 60 days 2. It counts as functional.

Values joined by “and” are separate entries in the source; they are usually repeats but may differ in a detail not shown here. Identical values can stand only once.

For `CCN1CCCC(Nc2nc(Nc3ccc(Cl)c(Cl)c3)nc3ccccc23)C1` (configuration not stated), the MST is 0.4 days in series [1]; 13.8 days in series [2]; 0.6 days and 0.5 days in series [3] (40 mg/kg); 13.8 days and 24.2 days in series [4] (640 mg/kg); 6.2 days and 7.3 days in series [5] (160 mg/kg); 1 days in series [8]. Further, the No. of cured in series [6] was 3 and 2. Moreover, the SD90 in [7] was 2.2 mg/kg/day. Moreover, the Ratio in series [9] turned out to be 34.

For `FC(F)(F)c1ccc(Nc2nc(NCCCN3CCCC3)c3cc(Cl)ccc3n2)cc1`, the MST in series [1] is 0.2 days; in series [2], 14.6 days; in series [3], 0.4 days; in [4] (640 mg/kg), 26.5 days and 23.3 days; in [5] (160 mg/kg), 4.6 days and 4 days; in [8] it was 1.6 days. Further, the MST in series [11] was determined as 0.4 days. Also, the SD90 in series [7] came to 22 mg/kg/day. Also, the No. of survivals in [10] was 2 and 3; in series [12], 1. In addition, the Ratio in series [13] worked out at 3.4.

As to `CC1(C)N=C(N)N=C(N)N1c1ccc(Cl)cc1` [CYCLOGUANIL], the MST in [1] (20 mg/kg) was 7.9 days and 8.1 days; in series [3], 13.4 days; in series [8] (80 mg/kg), 21.6 days and 21.9 days. Moreover, the “No. of toxic deaths” value in series [14] and in [15] was 5 in each case.

`Clc1cccc(Nc2nc(NCCN3CCCC3)c3ccccc3n2)c1`: the MST in [1] is 0.4 days; in [2], 4.2 days; in series [3] (40 mg/kg), 0.6 days and 0.7 days; in series [16] (640 mg/kg), 10.2 days and 11.1 days; in series [5] (160 mg/kg) it was 2.8 days and 3.5 days; in [8] it was 1.4 days. This molecule gave an SD90 in series [7] of 97 mg/kg/day. The Ratio in series [17] was found to be 0.8.

As for `CCN1CCCC(Nc2nc(Nc3ccc(Cl)c(Cl)c3)nc3ccc(Cl)cc23)C1` (configuration not stated), the MST is 0.1 days in [1], 0.1 days in series [3] and 0.3 days in series [5]. The SD90 in series [7] came to 46 mg/kg/day. Also, the Ratio in [18] is listed as 1.6.

`CCN(CC)C1CCC(Nc2nc(Nc3ccc(I)cc3)c3ccccc3n2)CC1` (configuration not stated): the MST in series [1] worked out at 0.3 days; in [2], 9.9 days; in series [19], 9.4 days; in series [3], 0.5 days; in series [20] it was 8.6 days; in series [5], 14.4 days. Moreover, the MST in series [8] (80 mg/kg) is 0.7 days and 0.5 days. The No. of survivals in series [21] is 2; in [10], 3 and 2; in series [12], 2.

`C=C[C@H]1CN2CC[C@H]1C[C@H]2[C@H](O)c1ccnc2ccc(OC)cc12` [QUININE]: the MST in [1] turned out to be 0.2 days; in [2], 3.2 days; in series [3] it was 1 days; in [16], 5.4 days; in series [5], 2 days; in series [8], 1.4 days. The SD90 in series [7] amounted to 74.5 mg/kg/day. In addition, in series [22], the Ratio is 1.

For the molecule `CCN(CC)C1CCC(Nc2nc(Nc3ccc(Cl)c(Cl)c3)nc3ccc(Cl)cc23)CC1` (configuration not stated), the MST in series [1] was 1.3 days; in series [3] (40 mg/kg) it was 13.3 days and 12.9 days; in [4], 18.4 days; in series [23], 12.9 days; in [20] it was 12.9 days; in [8], 14.9 days. Besides, the MST in [25] was determined as 13.9 days; in [26], 27.2 days. For the same molecule, the No. of survivals in series [24] is 1; in series [10] it was 4 and 3; in [12], 2.

These data come from ChEMBL document CHEMBL1121775, “Synthesis and antimalarial effects of N2-aryl-N4-[(dialkylamino)alkyl]- and N4-aryl-N2-[(dialkylamino)alkyl]-2,4-quinazolinediamines” (J Med Chem, 1981).
